Patent US20120029187A1, “HALOALKYLSULFONANILIDE DERIVATIVE” (Nissan Chemical Industries, Ltd., priority 2009, published 2012)

Key:
Format in all cases: in vivo
[1] = test system: beadstraw; test: Test Example 3: herbicidal effects in soil treatment; conditions: dose 3.2 g/a
Outline: (§1)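 Seeds were sown in sterilized diluvial soil and covered with about 1.5 cm of soil. Compounds, formulated as emulsifiable concentrates and diluted with water, were sprayed evenly over the soil surface at set doses in g/a. Herbicidal effect was scored on a rating scale three weeks later.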

[2] = test system: common ragweed; test: as above; conditions: dose 3.2 g/a
Outline: as §1

[3] = test system: velvetleaf; test: as above; conditions: dose 3.2 g/a
Outline: as §1

[4] = test system: redroot pigweed; test: as above; conditions: dose 3.2 g/a
Outline: as §1

[5] = test system: large crabgrass; test: as above; conditions: dose 3.2 g/a
Outline: as §1

[6] = test system: water foxtail; test: as above; conditions: dose 3.2 g/a
Outline: as §1

[7] = test system: giant foxtail; test: as above; conditions: dose 3.2 g/a
Outline: as §1

[8] = test system: common chickweed; test: as above; conditions: dose 3.2 g/a
Outline: as §1

[9] = test system: common lambsquater; test: as above; conditions: dose 3.2 g/a
Outline: as §1

[10] = test system: posumbu knotweed; test: as above; conditions: dose 3.2 g/a
Outline: as §1

[11] = test system: barnyardgrass; test: as above; conditions: dose 3.2 g/a
Outline: as §1

[12] = test system: Italian ryegrass; test: as above; conditions: dose 3.2 g/a
Outline: as §1

[13] = test system: ducksalad; test: Test Example 2: herbicidal effects during the vegetation period under submerged conditions; conditions: treatment during the vegetation period under submerged conditions; dose 2.52 g/a
Outline: (§2)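 Barnyardgrass, bulrush and ducksalad were co-sown in alluvial soil flooded to 4 cm and grown in a greenhouse at 25 to 30° C. At the 1- or 2-leaf stage, water-diluted emulsifiable concentrates went onto the water surface at set doses (g/a). Herbicidal effect was scored three weeks later on a graded scale.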

[14] = test system: bulrush; test: as above; conditions: treatment during the vegetation period under submerged conditions; dose 2.52 g/a
Outline: as §2

[15] = test system: barnyardgrass; test: as above; conditions: treatment during the vegetation period under submerged conditions; dose 2.52 g/a
Outline: as §2

[16] = test system: beadstraw; test: Test Example 4: herbicidal effect in foliage treatment; conditions: dose 3.2 g/a, three weeks after application
Outline: (§3)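 Doses are given in grams per are of applied compound, sprayed as water-diluted emulsifiable concentrate onto foliage of 14-day-old plants grown at 25 to 30° C. Herbicidal activity was assessed visually on a rating scale after three weeks.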

[17] = test system: common ragweed; test: as above; conditions: dose 3.2 g/a, three weeks after application
Outline: as §3

[18] = test system: velvetleaf; test: as above; conditions: dose 3.2 g/a, three weeks after application
Outline: as §3

[19] = test system: redroot pigweed; test: as above; conditions: dose 3.2 g/a, three weeks after application
Outline: as §3

[20] = test system: large crabgrass; test: as above; conditions: dose 3.2 g/a, three weeks after application
Outline: as §3

[21] = test system: water foxtail; test: as above; conditions: dose 3.2 g/a, three weeks after application
Outline: as §3

[22] = test system: giant foxtail; test: as above; conditions: dose 3.2 g/a, three weeks after application
Outline: as §3

[23] = test system: common chickweed; test: as above; conditions: dose 3.2 g/a, three weeks after application
Outline: as §3

[24] = test system: common lambsquater; test: as above; conditions: dose 3.2 g/a, three weeks after application
Outline: as §3

[25] = test system: posumbu knotweed; test: as above; conditions: dose 3.2 g/a, three weeks after application
Outline: as §3

[26] = test system: barnyardgrass; test: as above; conditions: dose 3.2 g/a, three weeks after application
Outline: as §3

[27] = test system: Italian ryegrass; test: as above; conditions: dose 3.2 g/a, three weeks after application
Outline: as §3

[28] = test system: ducksalad; test: Test Example 1: herbicidal effects in preemergence treatment under submerged conditions; conditions: dose 2.52 g/a
Outline: (§4)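 Flooded-paddy preemergence assay; EC diluted with water, surface-applied at weed seeding; doses g/a; rice transplanted at 2.5 leaves; 0–5 mortality score after 3 weeks.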

[29] = test system: bulrush; test: as above; conditions: dose 2.52 g/a
Outline: as §4

[30] = test system: barnyardgrass; test: as above; conditions: dose 2.52 g/a
Outline: as §4

[31] = test system: transplanted rice; test: Test Example 1: preemergence treatment under submerged conditions, effect on crop; conditions: dose 2.52 g/a
Outline: as §4

**Q.** For `COCC1(C)CC(=O)N(Cc2ccccc2N(C(=O)OCC(C)C)S(=O)(=O)C(F)(F)F)CO1` (centres unmarked) [II-56], which “O: beadstraw, herbicidal effect (evaluation scale 0-5)” value [1] is on record?
**A.** The value was 0 (mortality of less than 5% (almost ineffective)).

**Q.** What about the “J: common ragweed, herbicidal effect (evaluation scale 0-5)” value [2] of the same compound?
**A.** Its value is 4 (mortality of at least 70% and less than 90%).

**Q.** What about the “I: velvetleaf, herbicidal effect (evaluation scale 0-5)” value [3] of the same compound?
**A.** Its value is 5 (mortality of 90% or above (nearly complete death)).

**Q.** And the “K: redroot pigweed, herbicidal effect (evaluation scale 0-5)” value [4]?
**A.** The value was 2 (mortality of at least 20% and less than 40%).

**Q.** What about the “D: large crabgrass, herbicidal effect (evaluation scale 0-5)” value [5] of the same compound?
**A.** Its value is 4 (mortality of at least 70% and less than 90%).

**Q.** And the “G: water foxtail, herbicidal effect (evaluation scale 0-5)” value [6]?
**A.** Its value is 5 (mortality of 90% or above (nearly complete death)).

**Q.** And the “E: giant foxtail, herbicidal effect (evaluation scale 0-5)” value [7]?
**A.** The value was 5 (mortality of 90% or above (nearly complete death)).

**Q.** And the “N: common chickweed, herbicidal effect (evaluation scale 0-5)” value [8]?
**A.** The value was 5 (mortality of 90% or above (nearly complete death)).

**Q.** And the “L: common lambsquater, herbicidal effect (evaluation scale 0-5)” value [9]?
**A.** The value was 3 (mortality of at least 40% and less than 70%).

**Q.** And the “M: posumbu knotweed, herbicidal effect (evaluation scale 0-5)” value [10]?
**A.** The value was 3 (mortality of at least 40% and less than 70%).

**Q.** What about the “A: barnyardgrass, herbicidal effect (evaluation scale 0-5)” value [11] of the same compound?
**A.** Its value is 5 (mortality of 90% or above (nearly complete death)).

**Q.** What about the “H: Italian ryegrass, herbicidal effect (evaluation scale 0-5)” value [12] of the same compound?
**A.** Its value is 5 (mortality of 90% or above (nearly complete death)).

**Q.** And the “C: ducksalad, herbicidal effect (evaluation scale 0-5)” value [13]?
**A.** The value was 5 (mortality of 90% or above (nearly complete death)).

**Q.** And the “B: bulrush, herbicidal effect (evaluation scale 0-5)” value [14]?
**A.** Its value is 5 (mortality of 90% or above (nearly complete death)).

**Q.** What about the “A: barnyardgrass, herbicidal effect (evaluation scale 0-5)” value [15] of the same compound?
**A.** The value was 5 (mortality of 90% or above (nearly complete death)).

**Q.** What about the “O: beadstraw, herbicidal effect” value [16] of the same compound?
**A.** The value was 3 (mortality of at least 40% and less than 70%).

**Q.** What about the “J: common ragweed, herbicidal effect” value [17] of the same compound?
**A.** The value was 4 (mortality of at least 70% and less than 90%).

**Q.** And the “I: velvetleaf, herbicidal effect” value [18]?
**A.** The value was 5 (mortality of 90% or above (nearly complete death)).

**Q.** And the “K: redroot pigweed, herbicidal effect” value [19]?
**A.** Its value is 2 (mortality of at least 20% and less than 40%).

**Q.** What about the “D: large crabgrass, herbicidal effect” value [20] of the same compound?
**A.** Its value is 0 (mortality of less than 5% (almost ineffective)).

**Q.** What about the “G: water foxtail, herbicidal effect” value [21] of the same compound?
**A.** Its value is 5 (mortality of 90% or above (nearly complete death)).

**Q.** And the “E: giant foxtail, herbicidal effect” value [22]?
**A.** Its value is 4 (mortality of at least 70% and less than 90%).

**Q.** And the “N: common chickweed, herbicidal effect” value [23]?
**A.** The value was 4 (mortality of at least 70% and less than 90%).

**Q.** And the “L: common lambsquater, herbicidal effect” value [24]?
**A.** The value was 3 (mortality of at least 40% and less than 70%).

**Q.** And the “M: posumbu knotweed, herbicidal effect” value [25]?
**A.** The value was 0 (mortality of less than 5% (almost ineffective)).

**Q.** And the “A: barnyardgrass, herbicidal effect” value [26]?
**A.** Its value is 5 (mortality of 90% or above (nearly complete death)).

**Q.** And the “H: Italian ryegrass, herbicidal effect” value [27]?
**A.** Its value is 3 (mortality of at least 40% and less than 70%).

**Q.** And the “C: ducksalad, herbicidal effect (evaluation scale 0-5)” value [28]?
**A.** The value was 5 (mortality of 90% or above (nearly complete death)).

**Q.** And the “B: bulrush, herbicidal effect (evaluation scale 0-5)” value [29]?
**A.** Its value is 5 (mortality of 90% or above (nearly complete death)).

**Q.** And the “A: barnyardgrass, herbicidal effect (evaluation scale 0-5)” value [30]?
**A.** Its value is 5 (mortality of 90% or above (nearly complete death)).

**Q.** What about the “a: transplanted rice, effect on crop (evaluation scale 0-5)” value [31] of the same compound?
**A.** Its value is 0 (mortality of less than 5% (almost ineffective)).

**Q.** What does the source list for `Cn1nc(Cl)cc1C1(C)CC(=O)N(Cc2ccccc2NS(=O)(=O)C(F)(F)F)CO1` (centres unmarked) [II-59]?
**A.** O: beadstraw, herbicidal effect (evaluation scale 0-5) [1]: 1 (mortality of at least 5% and less than 20%); J: common ragweed, herbicidal effect (evaluation scale 0-5) [2]: 3 (mortality of at least 40% and less than 70%); I: velvetleaf, herbicidal effect (evaluation scale 0-5) [3]: 1 (mortality of at least 5% and less than 20%); K: redroot pigweed, herbicidal effect (evaluation scale 0-5) [4]: 3 (mortality of at least 40% and less than 70%); D: large crabgrass, herbicidal effect (evaluation scale 0-5) [5]: 1 (mortality of at least 5% and less than 20%); G: water foxtail, herbicidal effect (evaluation scale 0-5) [6]: 0 (mortality of less than 5% (almost ineffective)); E: giant foxtail, herbicidal effect (evaluation scale 0-5) [7]: 4 (mortality of at least 70% and less than 90%); N: common chickweed, herbicidal effect (evaluation scale 0-5) [8]: 4 (mortality of at least 70% and less than 90%); L: common lambsquater, herbicidal effect (evaluation scale 0-5) [9]: 0 (mortality of less than 5% (almost ineffective)); M: posumbu knotweed, herbicidal effect (evaluation scale 0-5) [10]: 1 (mortality of at least 5% and less than 20%); A: barnyardgrass, herbicidal effect (evaluation scale 0-5) [11]: 4 (mortality of at least 70% and less than 90%); H: Italian ryegrass, herbicidal effect (evaluation scale 0-5) [12]: 5 (mortality of 90% or above (nearly complete death)); C: ducksalad, herbicidal effect (evaluation scale 0-5) [13]: 5 (mortality of 90% or above (nearly complete death)); B: bulrush, herbicidal effect (evaluation scale 0-5) [14]: 5 (mortality of 90% or above (nearly complete death)); A: barnyardgrass, herbicidal effect (evaluation scale 0-5) [15]: 5 (mortality of 90% or above (nearly complete death)); O: beadstraw, herbicidal effect [16]: 5 (mortality of 90% or above (nearly complete death)); J: common ragweed, herbicidal effect [17]: 4 (mortality of at least 70% and less than 90%); I: velvetleaf, herbicidal effect [18]: 2 (mortality of at least 20% and less than 40%); K: redroot pigweed, herbicidal effect [19]: 0 (mortality of less than 5% (almost ineffective)); D: large crabgrass, herbicidal effect [20]: 3 (mortality of at least 40% and less than 70%); G: water foxtail, herbicidal effect [21]: 5 (mortality of 90% or above (nearly complete death)); E: giant foxtail, herbicidal effect [22]: 1 (mortality of at least 5% and less than 20%); N: common chickweed, herbicidal effect [23]: 4 (mortality of at least 70% and less than 90%); L: common lambsquater, herbicidal effect [24]: 1 (mortality of at least 5% and less than 20%); M: posumbu knotweed, herbicidal effect [25]: 1 (mortality of at least 5% and less than 20%); A: barnyardgrass, herbicidal effect [26]: 5 (mortality of 90% or above (nearly complete death)); H: Italian ryegrass, herbicidal effect [27]: 1 (mortality of at least 5% and less than 20%); C: ducksalad, herbicidal effect (evaluation scale 0-5) [28]: 5 (mortality of 90% or above (nearly complete death)); B: bulrush, herbicidal effect (evaluation scale 0-5) [29]: 5 (mortality of 90% or above (nearly complete death)); A: barnyardgrass, herbicidal effect (evaluation scale 0-5) [30]: 5 (mortality of 90% or above (nearly complete death)); a: transplanted rice, effect on crop (evaluation scale 0-5) [31]: 0 (mortality of less than 5% (almost ineffective))
